We go through three compounds from patent publication US4925650A, “Technetium -99m complex for examining the renal function” (Mallinckrodt, Inc., priority 1988, dated 1990).

For series [1] the following is noted: cited from earlier work; for mode of elimination / renal secretion (in words): in vivo.
Series [2] is described as follows: Liver accumulation in a human being after 40 minutes. The note with it: 0.5 mCi intravenously. Format: in vivo. On the procedure:
The liver accumulation is determined after 40 minutes. For the tested Tc99m-LL-isomer it amounts to 2.9%, for Tc99m-MAG3 it amounts to 4.0% of the injected dose.

With `O=C(O)CNC(=O)c1ccccc1[131I]` [iodo-131-Hippuran], the “mode of elimination / renal secretion (in words)” value in series [1] is listed as “secreted actively tubularly”. For the compound “Tc99m-diethylene triamine pentaacetic acid [DTPA]”, the clearance in series [1] (chelate of DTPA) was 100 ml of blood plasma per minute. Also, the “mode of elimination / renal secretion (in words)” value in series [1] was “eliminated entirely or substantially entirely by glomerular filtration”. Consider “Tc-99m-mercaptoacetyltriglycine [Tc99m-MAG3]”, for which the “mode of elimination / renal secretion (in words)” value in series [1] is “secreted by the kidneys selectively and approximately equally rapidly as iodo-Hippuran”. Also, the liver accumulation in series [2] is recorded as 4.0 % of the injected dose.
